Assay results from EP0465091B1, “Use of 3-oxygermylpropionic acid to treat cold syndrome” (SANWA KAGAKU KENKYUSHO CO., LTD., priority 1990, dated 1992).

Tests used:
[1] = see JP-A-57-53800 and US-A-4309412; cited from earlier work
[2] = system: rats; test: Antipyretic activity in dry yeast-induced fever (rectal temperature); type: in vivo; settings: oral; for Changes in mean temperature, Time 1 hr: rectal temperature 1 hr from dosing; for Changes in mean temperature, Time 2 hr: rectal temperature 2 hr from dosing; for Changes in mean temperature, Time 4 hr: rectal temperature 4 hr from dosing; for Changes in mean temperature, Time 8 hr: rectal temperature 8 hr from dosing; for Changes in mean temperature, Time 0 hr: rectal temperature at 0 hr (18 hours after yeast, at dosing)
Description: A 20 % suspension of dry yeast was subcutaneously injected into a Wister line of (masculine) rats (weights: 170-200 g) at a dose of 1 ml/100 g to bring their rectal temperatures up to higher than 39°C(39.13 0.02 ) after the lapse of 18 hours. The drugs to be tested were orally administrated to these rats, six for each group, to measure their rectal temperatures at 1, 2, 4 and 8 hours from dosing. The drugs used were: • (1) 75 mg/Kg (50 mg/Kg calculated as 3-OGP) of the primary composition according to Preparation Example; • (2) 1 mg/Kg of indomethacin (IND); • (3) 5 mg/Kg of indomethacin (IND); • (4) 75 mg/Kg (50 mg/Kg calculated as 3-OGP) of the primary composition according to Preparation Example 1 + 1 mg/Kg of indomethacin - administer at once; and • (5) No drug - control.

[3] = primary composition 75mg/Kg, IND 1mg/Kg, or both

| Compound | stability in the presence of water [1] | Changes in mean temperature, Time 1 hr ([2]; IND 5mg/Kg) | Changes in mean temperature, Time 1 hr [2, 3] | Changes in mean temperature, Time 2 hr ([2]; IND 5mg/Kg) | Changes in mean temperature, Time 2 hr [2, 3] | Changes in mean temperature, Time 4 hr ([2]; IND 5mg/Kg) | Changes in mean temperature, Time 4 hr [2, 3] | Changes in mean temperature, Time 8 hr ([2]; IND 5mg/Kg) | Changes in mean temperature, Time 8 hr [2, 3] | Changes in mean temperature, Time 0 hr ([2]; IND 5mg/Kg) | Changes in mean temperature, Time 0 hr [2, 3] |
| --- | --- | --- | --- | --- | --- | --- | --- | --- | --- | --- | --- |
| 3-oxygermylpropionic acid [3-OGP] | so unstable in the presence of water that its pharmacological activity decreases drastically |  |  |  |  |  |  |  |  |  |  |
| COc1ccc2c(c1)c(CC(=O)O)c(C)n2C(=O)c1ccc(Cl)cc1 [IND, Indomethacin] |  | 38.35 °C | 38.81 °C | 37.67 °C | 38.65 °C | 37.75 °C | 38.44 °C | 37.94 °C | 38.30 °C | 39.13 °C | 39.13 °C |
